Experimental data reported in patent publication US9351998B2, “Methods of nourishing animals” (MariCal, Inc., priority 2008, dated 2016).
“Also recorded” adds a separate entry of the source.

Molecular target: T1, mammalian CaSR (Homo sapiens, UniProt P41180)
T1 construct: expressed in transfected cells; host or cells: HEK cells stably expressing the mammalian CaSR
T1 sequence (P41180 20-1078): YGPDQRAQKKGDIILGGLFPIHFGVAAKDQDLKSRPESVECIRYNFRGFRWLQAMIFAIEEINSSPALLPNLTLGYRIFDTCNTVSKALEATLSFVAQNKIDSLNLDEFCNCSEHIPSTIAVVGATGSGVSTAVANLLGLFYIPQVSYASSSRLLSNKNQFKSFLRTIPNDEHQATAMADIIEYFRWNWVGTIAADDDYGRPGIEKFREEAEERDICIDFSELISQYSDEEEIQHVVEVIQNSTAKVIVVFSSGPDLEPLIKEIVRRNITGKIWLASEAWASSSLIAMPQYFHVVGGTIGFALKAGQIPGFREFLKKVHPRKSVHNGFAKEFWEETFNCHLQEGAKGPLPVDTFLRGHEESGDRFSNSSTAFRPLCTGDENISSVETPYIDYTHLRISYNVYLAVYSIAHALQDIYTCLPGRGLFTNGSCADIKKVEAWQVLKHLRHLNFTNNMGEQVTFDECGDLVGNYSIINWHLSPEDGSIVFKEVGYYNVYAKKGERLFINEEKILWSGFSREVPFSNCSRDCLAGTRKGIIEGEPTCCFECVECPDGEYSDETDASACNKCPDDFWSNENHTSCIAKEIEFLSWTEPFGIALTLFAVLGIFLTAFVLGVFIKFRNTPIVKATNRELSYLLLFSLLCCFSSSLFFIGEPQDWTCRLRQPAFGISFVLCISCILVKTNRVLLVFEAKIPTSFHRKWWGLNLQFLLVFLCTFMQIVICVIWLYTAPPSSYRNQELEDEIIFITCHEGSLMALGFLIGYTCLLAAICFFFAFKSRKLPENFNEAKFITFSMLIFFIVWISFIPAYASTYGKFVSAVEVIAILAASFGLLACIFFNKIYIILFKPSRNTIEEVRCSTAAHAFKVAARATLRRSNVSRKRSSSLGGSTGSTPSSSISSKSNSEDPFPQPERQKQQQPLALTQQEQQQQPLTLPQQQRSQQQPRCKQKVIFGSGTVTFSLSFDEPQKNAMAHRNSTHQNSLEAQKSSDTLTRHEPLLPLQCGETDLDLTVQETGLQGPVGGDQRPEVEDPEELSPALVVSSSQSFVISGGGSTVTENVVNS
Assay: FURA2 ratio imaging fluorimetry of HEK cells stably expressing mammalian CaSR
Format: cell-based
Excerpt: All methods and equipment utilized to perform experiments on HEK cells have been reported previously (Gama, L. and Breitwieser, G. E. 1998. A carboxyl-terminal domain controls the cooperativity for extracellular Ca2+ activation of the human calcium sensing receptor. A study with receptor-green fluorescent protein fusions. J. Biol. Chem. 273, 29712-29718; Bai, M., Quinn, S., Trivedi, S., Kifor, 0., Pearce, S. H., Pollak, M. R., Krapcho, K., Hebert, S. C. and Brown, E. M. 1996. Expression and characterization of inactivating and activating mutations in the human Ca2+o-sensing receptor. J. Biol. Chem. 271, 19537-19544). Untransfected HEK cells or, alternatively, cells transfected and expressing CaSR protein were cultured in Dulbecco's Modified Eagle Medium containing 10% fetal bovine serum and 1% penicillin-streptomycin in 75 cm^2 flasks until they reached confluence. Media was removed from the flasks and cells were loaded by exposure to Loading Buffer (125 mM NaCl, 4 mM KCl, 1.0 mMCaCl2, 1.0 mM MgCl2, 1 mM NaH2PO4, 20 mM HEPES, 1 gm/liter bovine serum albumin, and 1 gm/l glucose, pH ˜7.4, osmolality ˜285) containing 4.1 micromolar FURA2-AM (Molecular Probes Inc. Eugene, Oreg.) for 2 hr. Cells were then scraped from the surface of the flask using a standard cell scraper (Costar 3010, Corning Inc.). Cells were then pelleted from the suspension by low speed centrifugation to remove loading buffer and rinsed twice to remove extracellular FURA2 dye by two sequential suspensions and pelleting steps using low speed centrifugation. Immediately prior to the start of the experiment, cells were resuspended in various experimental buffers for analyses as described below. The Standard Experimental Buffer used for many studies was composed of: 125 mM NaCl, 4 mM KCl, 0.5 mMCaCl2, 0.5 mM MgCl2, 20 mM HEPES, 1 g/l glucose, pH ˜7.4, osmolality ˜285. All other buffers were variations on this basic composition where specific components within the Standard Experimental Buffer were varied while the remaining components were held constant.
Cell suspensions consisting of a total volume of 3 ml were analyzed in a PTI fluorimeter (PTI Model 814 Photomultiplier Detection System equipped with SC-500 Shutter Controller and PTI Driver and Analysis Software) within approximately 20 min after exposure to experimental buffers. Data was acquired using standard ratio image analysis as described previously using a data acquisition rate of 1.3 sec. for 500 or 1000 second intervals.
In selected experiments, the detergent Triton X-100 was added in order to lyse the cells and quantify differences in FURA2 ratio fluorescence. Triton X-100 was added to the cells to obtain a maximal fluorescence signal from the FURA2 for purposes of quantification.
Experiments on HEK cells were performed generally as described in Example 6 herein. […] Subsequent addition of Ca2+ to a final concentration of 5 mM produced an additional response (see FIG. 26A). No response was observed upon addition of 0.025% Mintrex Zn after the addition of experimental buffer (EB) (see FIG. 26B). […] In addition, the magnitude of the CaSR response to 5 mM Ca2+ was diminished by previous addition of Mintrex Zn.
For mammalian CaSR experiments, two individual aliquots from a single pool of HEK cells that stably express the recombinant mammalian CaSR protein were used for ratio imaging fluorimetry assays of CaSR activation generally as described in Example 6 herein. Addition of Ca++ to a final concentration of 2.5 mM produced a CaSR response that was also followed by responses after subsequent additions of 0.025% Zn proteinate followed by Ca++ to a final concentration of 7.5 mM (FIG. 29B). […] There was also a response to a subsequent dose of Ca++ to a final concentration of 7.5 mM (FIG. 29B). In both tracings, the detergent Triton X-100 was added as a final step to lyse the cells.
Experiments on HEK cells were performed generally as described in Example 6 herein. […]

COc1cccc([C@@H](C)NCCCc2ccccc2)c1 [MC0100]
effect of prior modulator on CaSR response to 0.025% Zn Proteinate (1 micromolar MC 0100): increased the response | effect of prior modulator on CaSR response to 0.025% Mintrex Zn (1 micromolar MC0100 added before Mintrex Zn): responded to 0.025% Mintrex Zn only after the addition of 1 micromolar MC0100 | CaSR response to the modulator itself (MC0100 at final 1 micromolar): very small CaSR response; also recorded: did not itself produce a large response | CaSR response to stepwise additions (after addition of 2.5 mM Ca++ (FIG. 37)): increased responses | effect on Mintrex Zn-induced reduction of CaSR response to 5 mM Ca2+ (previous addition of 1 micromolar MC0100): partially restored
